# According to patent US9493477B2, “Compositions comprising enzyme-cleavable ketone-modified opioid prodrugs and optional inhibitors thereof” (priority 2009, dated 2016):
# Read-outs that look alike come from different tables or passages of the source.
# Experiments:
# [1] = Pharmacokinetics following PO administration to rats (drug released into plasma from prodrug, or oxycodone); format: in vivo, rat; details: for oxycodone plasma concentrations compared to administration of oxycodone: PO prodrug versus PO oxycodone 10 mg/kg (Example 15)
# Protocol: At specified time points, blood samples were drawn, harvested for plasma via centrifugation at 5,400 rpm at 4° C. for 5 min, and 100 microliters (μl) plasma transferred from each sample into a fresh tube containing 1 μl of formic acid. The tubes were vortexed for 5-10 seconds, immediately placed in dry ice and then stored until analysis by high performance liquid chromatography/mass spectrometry (HPLC/MS).
# At specified time points, blood samples were drawn, harvested for plasma via centrifugation at 5,400 rpm at 4° C. for 5 min, and 100 microliters (μl) plasma transferred from each sample into a fresh tube containing 2 μl of 50% formic acid. The tubes were vortexed for 5-10 seconds, immediately placed in dry ice and then stored in −80° C. freezer until analysis by HPLC/MS.
# At specified time points, blood samples were drawn, harvested for plasma via centrifugation at 5,400 rpm at 4° C. for 5 min, and 100 μl plasma transferred from each sample into a fresh tube containing 2 μl of 50% formic acid. The tubes were vortexed for 5-10 seconds, immediately placed in dry ice and then stored in −80° C. freezer until analysis by HPLC/MS.
# [2] = Pharmacokinetics following IV administration of prodrug to rats; format: in vivo, rat
# [3] = In vitro stability of prodrug to household chemicals and enzyme preparations; format: physicochemical; details: vodka, baking soda, WINDEX, vinegar (RT or 80° C.) and GNC Super Digestive, tenderizer, subtilisn (RT), 1 or 24 hr
# Protocol: Samples were incubated as described and aliquots removed at 1 hr and 24 hr and stabilized by adding each to a solution of 50% or 100% of 85% phosphoric acid solution to achieve a final pH of less than or equal to pH 4. The stabilized aliquots were then diluted 4- to 6-fold with water, vortex-mixed and applied to HPLC.
# Samples were incubated as described. Aliquots were removed at 1 hr and 24 hr and stabilized by adding each to a solution of 50% or 100% of 85% phosphoric acid solution to achieve a final pH of less than or equal to pH 4. The stabilized aliquots were then diluted 4- to 6-fold with water, vortex-mixed and applied to HPLC.
# [4] = biological target: T1, trypsin from bovine pancreas (Bos taurus, UniProt P00760); experiment: In vitro trypsin-mediated release of drug from prodrug, without or with trypsin inhibitor Compound 109; format: biochemical
# T1 construct: purchased Sigma-Aldrich T8003; host or cells: bovine pancreas
# T1 sequence (P00760 24-246): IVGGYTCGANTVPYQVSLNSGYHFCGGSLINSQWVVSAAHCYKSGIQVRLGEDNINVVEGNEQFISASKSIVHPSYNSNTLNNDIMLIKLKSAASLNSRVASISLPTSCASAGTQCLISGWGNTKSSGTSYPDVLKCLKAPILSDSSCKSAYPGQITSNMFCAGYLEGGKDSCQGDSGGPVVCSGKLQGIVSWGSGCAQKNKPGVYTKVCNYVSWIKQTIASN
# Protocol: The reactions were conducted at 37° C. for 24 hr. Samples were collected at specified time points, transferred into 0.5% formic acid in acetonitrile to stop trypsin activity and stored at less than −70° C. until analysis by LC-MS/MS.
# Other reaction and sample treatment conditions were as described above.
# [5] = biological target: T2, human μ-opioid receptor (Homo sapiens, UniProt P35372); experiment: In vitro human μ-opioid receptor binding assay ([3H]DAMGO, recombinant HEK-293 cells); details: from Table 8
# [6] = In vivo tolerability of Compound KC-3 IV in rats; parameters: species or system rat; details: IV KC-3 71 mg/kg (97 μmol/kg), 4 rats dosed, observed up to 24 hours
# Protocol: Male naïve Sprague-Dawley rats, 4 per dose, were used in the study. Rats were weighed, and then placed under a heat lamp for 15-20 minutes to dilate the lateral tail veins. […] Before dosing, rats were placed in Broome restrainers and the drug was introduced into one of the tail veins using a syringe and needle. […] Blood samples were collected 5 minutes post-dose via the saphenous vein. The rats were observed up to 24 hours.
# [7] = biological target: T2, human μ-opioid receptor; format: cell-based; parameters: expressed in transfected cells; host or cells: CHO; details: Experiment 3; EC50 ratio, oxycodone or hydrocodone to its prodrug
# Protocol: The control reaction included 1 μM DAMGO. The reaction mixtures were incubated at 37° C. for 10 min, and the reaction product was cyclic AMP (cAMP). The samples were submitted to homogeneous time resolved fluorescence (HTRF®). EC50 values (concentration producing a half-maximal specific response) were determined by non-linear regression fit using the Hillplot software.
# [8] = rats, IV Compound KC-2 10 mg/kg or equimolar oxycodone, 15 minutes
# [9] = 241 BAEE U trypsin/mL, no inhibitor
# [10] = 4815 BAEE U trypsin/mL, no inhibitor
# T2 sequence (P35372 whole entry): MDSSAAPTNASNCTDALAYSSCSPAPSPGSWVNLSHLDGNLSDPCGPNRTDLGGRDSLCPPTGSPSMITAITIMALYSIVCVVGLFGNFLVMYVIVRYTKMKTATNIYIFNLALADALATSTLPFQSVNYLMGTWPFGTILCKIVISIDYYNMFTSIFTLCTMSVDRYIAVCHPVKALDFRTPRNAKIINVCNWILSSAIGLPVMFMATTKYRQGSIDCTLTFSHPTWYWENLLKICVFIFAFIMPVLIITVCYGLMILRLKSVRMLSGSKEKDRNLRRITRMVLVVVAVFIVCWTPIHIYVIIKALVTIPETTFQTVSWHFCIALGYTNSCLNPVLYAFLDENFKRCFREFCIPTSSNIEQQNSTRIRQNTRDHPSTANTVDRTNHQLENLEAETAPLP
compound,measurement,setting,value
"COc1ccc2c3c1O[C@H]1C(OC(=O)N(C)CCNC(=O)[C@H](CCCNC(=N)N)NC(C)=O)=CC[C@@]4(O)C(C2)N(C)CC[C@]314 [Compound KC-2, Oxycodone 6-(N-methyl-N-(2-N′-acetylarginylamino)) ethylcarbamate]",plasma concentrations of oxycodone versus Compound KC-2 dose,"[1]; PO 1.3 to 50 mg/kg, Table 6, FIG. 9",increase proportionally
same,oxycodone plasma concentrations compared to administration of oxycodone,[1],suppressed Cmax and delayed Tmax
same,Cmax of Compound KC-2 in plasma,"[2]; IV Compound KC-2 2 mg/kg, average ± sd, 4 rats",2680 ± 755 ng/mL
same,conversion to oxycodone,[3],less than 10%
same,Rate of oxycodone formation,"[4]; no trypsin inhibitor, 0.761 mM prodrug, 0.0228 mg/mL trypsin, 37° C.",37.4 ± 0.9 umols/h/umol trypsin
same,relative plasma/CSF partitioning coefficient to oxycodone (fold less CSF penetrant than oxycodone),"Table 10, 439/3.8",about 116 fold
same,Compound conc. in Plasma,"male, Sprague Dawley, rat, in vivo","27,200 ng/mL"
same,Compound conc. in CSF,[8],61.9 ng/mL
same,Plasma/CSF partitioning coefficient,[8],439
same,"affinity for the μ-opioid receptor, fold less than that of oxycodone",[5],about 2 fold
"COc1ccc2c3c1O[C@H]1C(OC(=O)N(C)CCNC(=O)[C@H](CCCNC(=N)N)NC(=O)CC(=O)O)=CC[C@@]4(O)[C@@H](C2)N(C)CC[C@]314 [Compound KC-3, N—{(S)-4-guanidino-1-[2-(methyl-[(5R,9R,13S,14S)-4,5a-epoxy-6,7-didehydro-14-hydroxy-3-methoxy-17-methylmorphinan-6-oxy]carbonyl-amino)-ethylcarbamoyl]-butyl}-malonamic acid]",plasma concentrations of oxycodone versus Compound KC-3 dose,"[1]; PO 1.4 to 46 mg/kg, Table 11, FIG. 11",increase proportionally
same,Rate of oxycodone formation,[4]; [9],0.0684 ± 0.0009 umol/h/ BAEE U
same,Clinical observations,[6],2 normal and 2 with ataxia which
same,relative plasma/CSF partitioning coefficient to oxycodone (fold less CSF penetrant than oxycodone),"Table 15, 1,737/4.8",about 364 fold
"COc1ccc2c3c1OC1C(OC(=O)N(C)CCNC(=O)C(CCCNC(=N)N)NC(=O)CC(=O)O)=CCC4C(C2)N(C)CCC314 [Compound KC-4, N—((S)-1-{2-[(Dihydrocodein-6-enyloxycarbonyl)-methylamino]-ethylcarbamoyl-4-guanidino}-butyl)-malonamic acid]",KC-4 Cmax ± sd,[2]; IV KC-4 2 mg/kg ([…]),3960 ± 570 ng/mL
same,Rate of hydrocodone formation,[4]; [9],0.0911 ± 0.015 umol/h/ BAEE U
same,Rate of hydrocodone formation,[4]; [10],0.0137 ± 0.0014 umol/h/ BAEE U
same,Drug/prodrug relative potency,[7],15
"COc1ccc2c3c1O[C@H]1C(OC(=O)N(CCCCCC(=O)O)CCNC(=O)[C@H](CCCNC(=N)N)NC(C)=O)=CC[C@@]4(O)[C@@H](C2)N(C)CC[C@]314 [Compound KC-5, 6-{[2-(2-Acetylamino-5-guanidino-pentanoylamino)-ethyl]-[(5R,9R,13S,14S)-4,5a-epoxy-6,7-didehydro-14-hydroxy-3-methoxy-17-methylmorphinan-6-oxy]-1-enyloxycarbonyl-amino}-hexanoic acid]",oxycodone plasma concentrations compared to administration of oxycodone,[1],suppressed Cmax and AUC and delayed Tmax
same,Rate of oxycodone formation,[4]; [9],0.135 ± 0.005 umol/h/ BAEE U
same,relative plasma/CSF partitioning coefficient to oxycodone (fold less CSF penetrant than oxycodone),"Table 22, 1,508/4.8",about 316 fold
COc1ccc2c3c1O[C@H]1C(OC(=O)N(C)C[C@H](NC(=O)[C@H](CCCNC(=N)N)NC(C)=O)C(=O)N(C)CC(=O)O)=CC[C@@]4(O)[C@@H](C2)N(C)CC[C@]314 [Compound KC-6],oxycodone plasma concentrations compared to administration of oxycodone,[1],suppressed Cmax and AUC and delayed Tmax
same,Rate of oxycodone formation,[4]; [9],0.0118 ± 0.0042 umol/h/ BAEE U
same,Rate of oxycodone formation,[4]; [10],0.00571 ± 0.0002 umol/h/ BAEE U
same,relative plasma/CSF partitioning coefficient to oxycodone (fold less CSF penetrant than oxycodone),"Table 25, 815/4.8",about 171 fold
